In PubChem BioAssay (NCI):
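Protocol summary: plate cells (96-well), add compound at 5 concentrations, incubate 48 h, interpolate endpoints linearly. Abbreviation: GI50, concentration required for 50% inhibition of growth. Definition used: TGI = concentration required for complete inhibition of growth.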

These compounds were tested on MDA-MB-468 breast (assay: inhibition of tumour cell growth, NCI panel, 48 h).

What does the source list for `CCN(CC)c1ccc2nc3c4ccccc4c(=NC(=O)c4ccccc4-c4c5ccc(N(CC)CC)cc5[o+]c5cc(N(CC)CC)ccc45)cc-3oc2c1`?
GI50: 1010 nM; TGI: 2430 nM

Which results are given for `Oc1[nH]c2ccc(Cl)cc2c1/C=c1/ccc2c(c1)N=C(c1cc(F)cc(F)c1)N=2`?
GI50: 3460 nM; TGI: 13200 nM

For `COc1cc(C2C(C#N)=C(N)Oc3cc4c(cc32)OCO4)cc2c1OCO2` (centres undefined), which GI50 is on record?
Its GI50 is 112 nM.

And the TGI?
Its TGI is 836 nM.

Which GI50 does the source give for `CN1CCN(c2ccc3nc4c(nc3c2C(F)(F)F)C(=O)c2ncccc2C4=O)CC1` here?
Its GI50 is 1060 nM.

What about the TGI of the same compound?
Its TGI is 2580 nM.

`N#CSCC(=O)c1ccc(Cl)cc1` was tested. Which GI50 did it give?
The GI50 was 2280 nM.

And the TGI?
Its TGI is 10400 nM.

How did the GI50 turn out when `CCN1C(=O)N(CC)C2C1NN=c1s/c(=C\c3ccccc3)c(=O)n12` (centres undefined) was run?
Its GI50 is 86.7 nM.

What about the TGI of the same compound?
The TGI was greater than 100000 nM.

Which GI50 does the source give for `C=C(C)[C@@H]1CC[C@]2(C)[C@H](C=CC3=C4C[C@@](C)(CO)CC[C@]4(C)CC[C@]32C)[C@@]1(C)CCCN` here?
Its GI50 is 1580 nM.

And the TGI?
Its TGI is 3200 nM.

For `C[C@@H]1CN2[C@H]3[C@@H]1CC[C@]31CCC(=O)O[C@]1(C)[C@@H]1CC[C@H]3CCC=C3[C@@H]12`, which GI50 is on record?
Its GI50 is greater than 70000 nM.

And the TGI?
The TGI was greater than 70000 nM.

What does the source list for `CCc1ccccc1-n1c(N)c(C#N)c(-c2ccc(OC)c(OC)c2)c(C#N)c1=O`?
GI50: 37600 nM; TGI: > 100000 nM

With `CC(=O)OCC(=O)C1(O)C(C)CC2C3C=C(C)C4=Cc5c(cnn5-c5ccccc5)CC4(C)C3C(O)CC21C` (centres undefined) as the compound, how does the GI50 read?
Its GI50 is 2030 nM.

What about the TGI of the same compound?
Its TGI is 4330 nM.

`CCS/C(Nc1ccccc1)=C(\C#N)C(=O)N/N=C/c1ccc(Cl)cc1Cl` was tested. Which GI50 did it give?
The GI50 was 2600 nM.

And the TGI?
The TGI was 9190 nM.

`O=C(CC1(O)C(=O)Nc2c(Cl)ccc(Cl)c21)c1ccc(C2CC2)cc1` (centres undefined) was tested. Which GI50 did it give?
The GI50 was 297 nM.

What about the TGI of the same compound?
Its TGI is 10200 nM.

Which results are given for `C=C1C(=O)OC2CC3(C)OC3C3OC3C3=CC(OC3=O)C12` (centres undefined)?
GI50: 1580 nM; TGI: 3280 nM

For `COc1ccc(-n2sc(=O)n(Cc3ccc(COC(=O)C(C)c4ccc(CC(C)C)cc4)cc3)c2=O)cc1` (centres undefined), which GI50 is on record?
Its GI50 is 925 nM.

What about the TGI of the same compound?
The TGI was 2130 nM.

What does the source list for `COc1ccc2c(c1)Oc1nc(N)c(C#N)c(N)c1C2Sc1ccc(C)cc1` (centres undefined)?
GI50: 1200 nM; TGI: 2600 nM

With `COc1cccc(Nc2nccc(Nc3ccc4[nH]ncc4c3)n2)c1` as the compound, how does the GI50 read?
The GI50 was 1250 nM.

What about the TGI of the same compound?
Its TGI is 2770 nM.

How did the GI50 turn out when `CNCCOc1nc2c3cnccc3cc(-c3cc(OC)c(OC)c(OC)c3)c2c2ccncc12` was run?
The GI50 was 27.8 nM.

And the TGI?
The TGI was 106 nM.

Which results are given for `CCOc1cc(/C=N\NC(=O)N/N=C/c2ccc(O)c(OCC)c2)ccc1O`?
GI50: 1440 nM; TGI: 7270 nM

Which results are given for `N#CC[C@H](C1CCCC1)n1cc(-c2ncnc3[nH]ccc23)cn1`?
GI50: 23200 nM; TGI: 78800 nM

What does the source list for `C/C(=N\Nc1cccc(Cl)n1)c1ccccn1`?
GI50: 764 nM; TGI: 2420 nM

`COc1cnc2c(c1)C(=O)c1c-2n(CCCN2CCN(CCO)CC2)c(=O)c2cc([N+](=O)[O-])ccc12` was tested. Which GI50 did it give?
Its GI50 is 2470 nM.

What about the TGI of the same compound?
Its TGI is 7540 nM.

`O=C(Nc1ccc(S(=O)(=O)NC2CCCCCC2)cc1)C(c1ccccc1)S(=O)(=O)c1ccc(F)cc1` (centres undefined) was tested. Which GI50 did it give?
The GI50 was 863 nM.

And the TGI?
Its TGI is 3230 nM.

What does the source list for `CCNCCNc1cc(-c2cccc(C(F)(F)F)c2)c(C#N)c2nc3ccccc3n12`?
GI50: 1340 nM; TGI: 2840 nM

How did the GI50 turn out when `CON` was run?
The GI50 was greater than 100000 nM.

And the TGI?
The TGI was greater than 100000 nM.

Which results are given for `C=C=[CH][Sn]([c]1ccccc1)([c]1ccccc1)[c]1ccccc1`?
GI50: 1340 nM; TGI: 2660 nM

What does the source list for `CN(C)CCOc1nc2ccccc2c2c1-c1ccc(Cl)cc1C2=O`?
GI50: 606 nM; TGI: 1970 nM

How did the GI50 turn out when `CC(C)N(C[C@H]1O[C@@H](n2cnc3c(N)ncnc32)[C@H](O)[C@@H]1O)C1CC(CCc2nc3ccc(C(C)(C)C)cc3[nH]2)C1` (some centres undefined) was run?
Its GI50 is 18400 nM.

And the TGI?
The TGI was greater than 72600 nM.

For `CCCCCCC1N=C(N)N=C(N)N1c1ccc(Cl)cc1` (centres undefined), which GI50 is on record?
Its GI50 is 1350 nM.

What about the TGI of the same compound?
The TGI was 4720 nM.

For `CN(NC(=O)CC(=O)NN(C)C(=S)c1ccc(Cl)cc1)C(=S)c1ccc(Cl)cc1`, which GI50 is on record?
Its GI50 is 23900 nM.

What about the TGI of the same compound?
Its TGI is greater than 100000 nM.

With `C[C@@H](Oc1cc(-c2cnn(C3CC4(CCCNC4)C3)c2)cnc1N)c1c(Cl)ccc(F)c1Cl` (some centres undefined) as the compound, how does the GI50 read?
Its GI50 is 1090 nM.

What about the TGI of the same compound?
Its TGI is 2490 nM.

With `CS[C@@]1(C(=O)Nc2ccc3[nH]nc(-c4ccc(OC(C)C)nc4)c3c2)CCN(CC(=O)N2CC=C(c3ccc(-c4ncn(C)n4)cc3)CC2)C1` as the compound, how does the GI50 read?
The GI50 was greater than 100000 nM.

What about the TGI of the same compound?
The TGI was greater than 100000 nM.

Which results are given for `COc1ccc(NC(=O)O[C@H]2[C@H](O[C@H]3[C@@H](O)COC(O[C@H]4C[C@H]5[C@@H]6CC=C7C[C@@H](O)CC[C@]7(C)[C@H]6CC[C@]5(C)[C@H]4[C@H](C)C(=O)CCC(C)C)[C@@H]3OC(C)=O)OC[C@@H](O)[C@@H]2O)cc1` (some centres undefined)?
GI50: < 10 nM; TGI: 630 nM

Which GI50 does the source give for `Cc1cc2nc3c4ccccc4n(CCN(C)C)c3nc2cc1C` here?
The GI50 was 1320 nM.

What about the TGI of the same compound?
The TGI was 3620 nM.

Which GI50 does the source give for `O=[N+]([O-])c1ccc(-c2ccccc2)c([As](=O)(O)O)c1` here?
Its GI50 is 11800 nM.

And the TGI?
The TGI was 28100 nM.

Which results are given for `Cc1cc2c(C(C)C)c(O)c(O)c(C=O)c2c(O)c1-c1c(C)cc2c(C(C)C)c(O)c(O)c(C=O)c2c1O` (tested in a mixture with another compound)?
GI50: 1010 nM; TGI: 3750 nM

`Brc1ccc(Br)nn1` was tested. Which GI50 did it give?
Its GI50 is 1140 nM.

What about the TGI of the same compound?
Its TGI is 2470 nM.

Which GI50 does the source give for `COC(=O)Nc1nc2ccc(Sc3ccccc3)cc2[nH]1` here?
Its GI50 is 165 nM.

And the TGI?
Its TGI is 1530 nM.

How did the GI50 turn out when `N#Cc1c(Oc2ccc(F)c(NC(=O)Cc3cccc(C(F)(F)F)c3)c2)ccc2nc(NC(=O)C3CC3)sc12` was run?
The GI50 was 3980 nM.

What about the TGI of the same compound?
Its TGI is greater than 100000 nM.

For `CCOC(=O)C(Cc1ccc(OC)cc1)C(=O)OCC`, which GI50 is on record?
Its GI50 is 4170 nM.

And the TGI?
The TGI was 20600 nM.

What does the source list for `COc1ccc(C2C3=C(COC3=O)N(CCO)c3cc4c(cc32)OCCO4)cc1OC` (centres undefined)?
GI50: 786 nM; TGI: 5190 nM

With `CC[C@H](C)[C@H](NC(=O)C12CC(NC(C)=O)(C1)C2)C(=O)N(C)[C@H](C[C@@H](OC(C)=O)c1nc(C(=O)N[C@@H](Cc2ccccc2)C[C@H](C)C(=O)OC)cs1)C(C)C` as the compound, how does the GI50 read?
Its GI50 is 58.4 nM.

And the TGI?
Its TGI is greater than 9300 nM.

`O=C(NO)c1cnc(N2CCN(S(=O)(=O)c3ccc4ccccc4c3)CC2)nc1` was tested. Which GI50 did it give?
Its GI50 is 74.3 nM.

And the TGI?
The TGI was 6500 nM.

With `CCCCCc1c(C)[nH]c(/C=c2\[nH]/c(=C3/C=c4ccccc4=N3)cc2OC)c1C` as the compound, how does the GI50 read?
The GI50 was 59.1 nM.

What about the TGI of the same compound?
Its TGI is 1630 nM.

How did the GI50 turn out when `CC(=O)N[C@@H](Cc1ccc(OP(=O)(O)O)cc1)C(=O)N[C@H]1CCC(=O)N2CCC[C@@H](C(=O)NCc3ccc(O)cc3)N2C1=O` was run?
Its GI50 is greater than 25000 nM.

What about the TGI of the same compound?
The TGI was greater than 25000 nM.

For `COc1cc(/C=C/C(=O)c2ccc(Nc3nc(Nc4ccccc4)nc(Nc4ccc(Cl)cc4)n3)cc2)cc(OC)c1OC`, which GI50 is on record?
Its GI50 is 11700 nM.

And the TGI?
Its TGI is greater than 32500 nM.

`ClC1=C(Cl)C(Cl)=C(Cl)C1=Cc1ccc(Cl)cc1` was tested. Which GI50 did it give?
The GI50 was 251 nM.

What about the TGI of the same compound?
Its TGI is 869 nM.

What does the source list for `O=c1cc(-c2ccccc2Cl)[nH]c2cc3c(cc12)OCO3`?
GI50: 13900 nM; TGI: > 100000 nM
